Data from publication PMC12610503, “The Molecular Mechanism of PDE1 Regulation” (Cells, 2025).
Entries after “also recorded” stand apart in the source; their conditions may differ. Ends that are not written are not given here.

Columns and labels:
[1] = test system: PDE4 UCR2-containing isoforms; settings: cited from earlier work
Description: For PDE4, the longer isoforms that contain the N-terminal upstream conserved regions (UCR1 and UCR2) are activated by phosphorylation via the cAMP-activated protein kinase A (PKA), providing feedback regulation. […] To test whether the regulatory domains are functionally transferable, we generated and expressed a PDE1/4 chimera with the regulatory domain from PDE1B fused to the catalytic domain from PDE4D (Figure S1). […] Rolipram is a selective PDE4 inhibitor with higher potency towards PD ...

[2] = test system: PDE1/4 chimera (PDE1B regulatory domain fused to the PDE4D catalytic domain); test: PDE4 inhibitor inhibition of the PDE1/4 chimera (SPA); format: biochemical, human; settings: [3H]-cAMP; for Inhibition of PDE1/4 chimera activity (in words) / Rolipram potency on PDE1/4 chimera relative to PDE4D catalytic domain (in words) / Rolipram affinity/potency boost on calcium/calmodulin-activated PDE1/4 chimera (in words): pH 7.2, 1 h, room temperature; for Rolipram potency on PDE1/4 chimera relative to PDE4D catalytic domain (in words): IC50, 3–5 independent experiments, without calcium/calmodulin activation; for Rolipram affinity/potency boost on calcium/calmodulin-activated PDE1/4 chimera (in words): chimera activated by calcium/calmodulin
Description: (§1) Human PDE1B1 (Refseq: NM_000924.4) and its N-terminal deletion constructs were cloned into BamH1 and Xho1 sites of pcDNA3.1(+) using PCR. The stated boundary and amino acid positions for mutants and deletion constructs are based on the PDE1B1 isoform (Refseq: NP_000915). For all N-terminal constructs, a start codon was introduced upstream of the indicated boundary, resulting in a methionine preceding the amino acid specified by the N-terminal boundaries. Point mutations and internal deletions were generated using the QuickChange^TM site-directed mutagenesis method, as previously described. The PDE1B-PDE4D chimera was generated by inserting the human PDE4D catalytic domain with a PCR-introduced N-terminal BspE1 site into a pcDNA3.1-PDE1B (82-end) construct using an internal BspE1 site at the junction of the regulatory and catalytic domain and an Xho1 site downstream of the stop codon. All constructs were validated through sequencing. Maps and sequences are available upon request. Alignments were generated using Geneious Prime (v 2024.0.7). Amino acids are colored according to the RasMol color scheme, and similarities are indicated according to the BLOSUM substitution matrix.
Plasmids were transiently transfected into HEK293 cells using Lipofectamine 2000 (Thermo Fisher, Waltham, MA, USA) according to the manufacturer’s instructions. For each well of a 6-well plate, 5 µg plasmid and 10 µL Lipofectamine 2000 were used.
Next, 48 h after transfection, cells were washed once with ice-cold PBS, scraped off into 2 mL PBS, and pelleted via centrifugation at 700× g for 5 min at 4 °C. The resulting cell pellet was frozen. Later, the pellet was thawed and resuspended in 0.5 mL of lysis buffer 50 mM Tris-HCL (pH 8.0) (Sigma-Aldrich, T3253, St. Louis, MO, USA), 1 mM MgCl2, and Complete ULTRA protease inhibitor cocktail (Roche, 05892970001, Basel, Switzerland). The lysate was then centrifuged at 20.000× g for 10 min at 4 °C to remove nuclei and membranes. Then, 0.05% Tween20 (Sigma-Aldrich, P2287) (final concentration) was added to the supernatant containing the cytosolic PDE1 before it was aliquoted and snap frozen.
PDE activity was measured using a scintillation proximity assay (SPA)-based method, similar to that previously described. Briefly, assays were conducted in 96-well plates using a buffer containing 40 mM Hepes (pH 7.2), 140 mM KCl, and 1.5 mM MgCl2. In each well, 0.005–0.05 µL PDE lysate was mixed with or without final concentrations of 50 µM CaCl2 and 50 nM calmodulin (Sigma-Aldrich, P1431) in a volume of 55 µL, and allowed to stand for 5 min at room temperature. Lysate amounts were adjusted to ensure that less than 30% of the tritiated substrate was hydrolyzed. Next, 10 µL tritiated cyclic nucleotide substrate ([3H]-cGMP for PDE1 and [3H]-cAMP for PDE4 and the PDE1/4 chimera) was added, and the reaction was allowed to proceed for 1 h at room temperature before 15 µL of 8 mg/mL phosphodiesterase SPA beads (Perkin Elmer, RPNQ0150, Shelton, CT, USA) was added. After another hour at room temperature to allow binding of the reaction products to the beads, the plates were counted for 2 min using a liquid scintillation counter (Wallac Trilux, Turku, Finland). […] To avoid overestimating inhibition, PEP1-sol was also tested by adding it after reaction termination (i.e., after SPA bead addition) in concentration–response experiments, and pre-addition inhibition minus post-addition (apparent) inhibition at each concentration was used for IC50 calculations.
To test whether the regulatory domains are functionally transferable, we generated and expressed a PDE1/4 chimera with the regulatory domain from PDE1B fused to the catalytic domain from PDE4D (Figure S1).

PDE1B_82–501 = test: Calcium/calmodulin activation of PDE1B_82–501 (SPA); format: biochemical, human; settings: 50 nM calmodulin and 50 µM CaCl2; deletion of 35 amino acids from C-terminal
Description: as §1, with “Alignments were generated using Geneious Prime (v 2024.0.7). Amino acids are colored according to the RasMol color scheme, and similarities are indicated according to the BLOSUM substitution matrix.” left out
(§2) PDE activity was measured using a scintillation proximity assay (SPA)-based method, similar to that previously described. […] After another hour at room temperature to allow binding of the reaction products to the beads, the plates were counted for 2 min using a liquid scintillation counter (Wallac Trilux, Turku, Finland). […] Since absorbance was low, this had only a minor impact on IC50 estimates. […]

[3] = Solubility of inhibitory domain peptides; format: physicochemical
[4] = molecular target: T1, PDE1B catalytic domain (PDE1B-cata) (Homo sapiens, UniProt Q01064); test: Inhibition of PDE1B-cata enzyme activity by inhibitory domain peptides added in trans (SPA); format: biochemical; settings: [3H]-cGMP, pH 7.2, 1 h, room temperature, post-addition (apparent) inhibition subtracted, average ± SEM from 3 independent experiments
T1 construct: compared to the PDE1B catalytic domain (PDE1B-cata; 146–536); added initiator methionine (single Met before residue 146); made in house; host or cells: HEK293 cells, transiently transfected with pcDNA3.1(+) construct; cleared cytosolic lysate used, not purified
T1 sequence (Q01064 146-536): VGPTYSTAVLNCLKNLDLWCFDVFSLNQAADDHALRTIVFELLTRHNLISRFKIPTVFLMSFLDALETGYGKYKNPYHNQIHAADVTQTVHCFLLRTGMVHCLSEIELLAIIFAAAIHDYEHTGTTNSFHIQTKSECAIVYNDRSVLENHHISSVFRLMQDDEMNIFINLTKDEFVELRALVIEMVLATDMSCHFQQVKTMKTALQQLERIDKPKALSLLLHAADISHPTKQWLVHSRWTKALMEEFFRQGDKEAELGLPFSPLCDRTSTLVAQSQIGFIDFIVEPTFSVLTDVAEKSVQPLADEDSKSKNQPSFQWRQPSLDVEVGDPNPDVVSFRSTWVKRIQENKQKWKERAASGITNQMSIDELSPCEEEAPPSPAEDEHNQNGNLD
Description: as §1, with “Alignments were generated using Geneious Prime (v 2024.0.7). Amino acids are colored according to the RasMol color scheme, and similarities are indicated according to the BLOSUM substitution matrix.” left out
as §2

COc1ccc(C2CNC(=O)C2)cc1OC1CCCC1 (stereo not shown) [rolipram]
Rolipram affinity for UCR2-containing isoforms compared to the catalytic domain alone (in words) ([1]; compared to the catalytic domain alone): higher affinity
Rolipram potency towards PDE4 isoforms containing regulatory domains (in words) ([1]; selective PDE4 inhibitor): higher potency towards PDE4 isoforms containing regulatory domains
Inhibition of PDE1/4 chimera activity (in words) [2]: could be inhibited
Rolipram potency on PDE1/4 chimera relative to PDE4D catalytic domain (in words) [2]: inhibited the PDE1/4 chimera more potently than the PDE4D catalytic domain
Rolipram potency on PDE1/4 chimera relative to PDE4D catalytic domain (in words) ([2]; listed as Rolipram): inhibits the PDE1/4 chimera more potently than the PDE4D catalytic domain alone
Rolipram affinity/potency boost on calcium/calmodulin-activated PDE1/4 chimera (in words) [2]: affinity boost was lost when the chimera was activated by calcium/calmodulin
Rolipram affinity/potency boost on calcium/calmodulin-activated PDE1/4 chimera (in words) ([2]; listed as Rolipram): increased potency is lost upon activation of the chimera by calcium/calmodulin

calmodulin
Calmodulin regulation of PDE1B_82–501 (in words) (PDE1B_82–501): no impact on calmodulin regulation of activity

O=C(Nc1c(Cl)cncc1Cl)c1ccc(OC(F)F)c(OCC2CC2)c1 [roflumilast]
Effect of calcium/calmodulin activation on roflumilast IC50 towards chimera (in words) ([2]; 3-4 independent experiments): unaffected by
Roflumilast IC50 towards chimera compared with PDE4Dcata (in words) ([2]; 3-4 independent experiments, one-way ANOVA with Sidak's): not significantly different from PDE4D catalytic domain
Inhibition of PDE1/4 chimera activity (in words) [2]: could be inhibited; also recorded: inhibits the PDE1/4 chimera

SDEVPSEVRDWLASTFTRQ [PEP1-sol]
Solubility (in words) [3]: more soluble variant
IC50 [4]: 17.9 ± 2.1 µM
